# Experimental data reported in ChEMBL document CHEMBL2057173, “Synthesis and SAR studies of bicyclic amine series GPR119 agonists” (Bioorg Med Chem Lett, 2012).
# Tests used:
# [1] = biological target: T1, Glucose-dependent insulinotropic receptor (Homo sapiens, UniProt Q8TDV5); assay: Agonist activity at human GPR119 receptor expressed in CHO-K1 cells assessed as cAMP accumulation after 30 mins by HTRF assay; format: functional, cell-based
# T1 sequence (Q8TDV5 whole entry): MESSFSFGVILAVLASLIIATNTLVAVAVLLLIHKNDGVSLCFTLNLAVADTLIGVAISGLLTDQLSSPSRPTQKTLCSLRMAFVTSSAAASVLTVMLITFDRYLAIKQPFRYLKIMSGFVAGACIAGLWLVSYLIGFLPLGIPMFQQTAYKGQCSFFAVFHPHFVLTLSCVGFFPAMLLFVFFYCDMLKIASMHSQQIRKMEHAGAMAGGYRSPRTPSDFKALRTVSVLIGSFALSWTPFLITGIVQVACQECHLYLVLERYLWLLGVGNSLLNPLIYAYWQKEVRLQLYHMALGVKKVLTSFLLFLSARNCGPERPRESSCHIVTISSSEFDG
# [2] = biological target: T2, Glucose-dependent insulinotropic receptor (Homo sapiens) (UniProt Q8TDV5); assay: Agonist activity at human GPR119 receptor expressed in CHO-K1 cells assessed as cAMP accumulation after 30 mins by HTRF assay relative to AR231453; format: functional, cell-based
# T2 sequence (whole entry): T1 sequence (Q8TDV5 whole entry)
# [3] = biological target: T3, Glucose-dependent insulinotropic receptor (Mus musculus, UniProt Q7TQP3); assay: Agonist activity at mouse GPR119 receptor expressed in CHO-K1 cells assessed as cAMP accumulation after 30 mins by HTRF assay; format: functional, cell-based
# T3 sequence (Q7TQP3 whole entry): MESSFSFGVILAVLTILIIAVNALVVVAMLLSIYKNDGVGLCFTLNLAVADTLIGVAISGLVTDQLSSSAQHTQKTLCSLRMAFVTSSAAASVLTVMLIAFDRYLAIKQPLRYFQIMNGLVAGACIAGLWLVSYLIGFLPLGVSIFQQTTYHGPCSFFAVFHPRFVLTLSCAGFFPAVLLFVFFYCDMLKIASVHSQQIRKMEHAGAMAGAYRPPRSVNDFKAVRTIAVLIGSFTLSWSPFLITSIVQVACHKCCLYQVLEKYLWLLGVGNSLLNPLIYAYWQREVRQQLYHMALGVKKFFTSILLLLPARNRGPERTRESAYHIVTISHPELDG
# [4] = biological target: T4, Glucose-dependent insulinotropic receptor (Mus musculus) (UniProt Q7TQP3); assay: Agonist activity at mouse GPR119 receptor expressed in CHO-K1 cells assessed as cAMP accumulation after 30 mins by HTRF assay relative to AR231453; format: functional, cell-based
# T4 sequence (whole entry): T3 sequence (Q7TQP3 whole entry)
# [5] = biological target: T2, Glucose-dependent insulinotropic receptor (Homo sapiens); assay: Agonist activity at human GPR119 receptor expressed in CHO-K1 cells assessed as cAMP accumulation at 1 uM after 30 mins by HTRF assay; format: functional, cell-based
# [6] = biological target: T2, Glucose-dependent insulinotropic receptor (Homo sapiens); assay: Agonist activity at human GPR119 receptor expressed in CHO-K1 cells assessed as cAMP accumulation at 10 uM after 30 mins by HTRF assay; format: functional, cell-based
# Mus musculus [7] = assay: Antidiabetic activity in fasted C57BL/6j mouse assessed as increase in plasma GLP-1 level at 30 mg/kg, po after 30 mins by ELISA relative to control; format: functional
# Mus musculus [8] = assay: Antidiabetic activity in fasted C57BL/6j mouse assessed as decrease in glucose excursion at 10 mg/kg, po administered 30 mins prior to oral glucose-challenge measured after 120 mins by oral glucose tolerance test; format: functional; set-up: scale not given: the % may be the effect or the level left
# Mus musculus [9] = assay: Antidiabetic activity in fasted C57BL/6j mouse assessed as decrease in glucose excursion at 3 mg/kg, po administered 30 mins prior to oral glucose-challenge measured after 120 mins by oral glucose tolerance test; format: functional; set-up: scale not given: the % may be the effect or the level left
# Mus musculus [10] = assay: Antidiabetic activity in po dosed fasted C57BL/6j mouse assessed as decrease in glucose excursion administered 30 mins prior to oral glucose-challenge by oral glucose tolerance test; format: functional, organism-based
# Mus musculus [11] = assay: Antidiabetic activity in fasted C57BL/6j mouse assessed as decrease in glucose excursion at 10 mg/kg, po administered 30 mins prior to subcutaneous glucose-challenge after 120 mins by subcutaneous glucose tolerance test; format: functional; set-up: scale not given: the % may be the effect or the level left
Compound,EC50 [1] [nM],Emax [2] [%],EC50 [3] [nM],Emax [4] [%],other results
CC(C)c1noc(N2CCC(CCCNc3ccc4c(c3)C(=O)CC4)CC2)n1,58,110,158,113,–
CC(C)(C)OC(=O)N1CCC(CCCCNc2ccc3c(c2)CCS3(=O)=O)CC1,210,62,–,–,–
CC(C)(C)OC(=O)N1CCC(CCCNc2ccc3c(c2)S(=O)(=O)CC3)CC1,1030,25,–,–,–
COC(=O)c1cnc(N2CCC(CCCNc3ccc4c(c3)OCC4=O)CC2)nc1,149,85,139,67,–
COc1cnc(N2CCC(CCCNc3ccc4c(c3)OCC4=O)CC2)nc1,115,101,60,106,–
CC(C)(C)OC(=O)N1CCC(CCCNc2ccc3c(c2)CCS3(=O)=O)CC1,270,80,224,83,–
CC(C)(C)OC(=O)N1CCC(OCCNc2ccc3c(c2)CCS3(=O)=O)CC1,–,33,–,–,Activity [5]: 33%
CC(C)(C)OC(=O)N1CCC(CCCNc2ccc3c(c2)NNS3(=O)=O)CC1,268,99,331,95,–
CC(C)c1noc(N2CCC(CCCNc3ccc4c(c3)OCC4=O)CC2)n1,73,94,–,–,–
CC(C)(C)OC(=O)N1CCC(CCCNc2ccc3c(c2)OCS3(=O)=O)CC1,254,93,266,105,–
CC(C)(C)OC(=O)N1CCC(CCCOc2ccc3c(c2)CCS3(=O)=O)CC1,736,84,–,–,–
CC(C)(C)OC(=O)N1CCC(CCCNc2ccc3c(c2)OCCS3(=O)=O)CC1,511,81,–,–,–
CC(C)(C)OC(=O)N1CCC(CCCNc2ccc3c(c2)CCCCC3=O)CC1,770,38,–,–,–
CC(C)(C)OC(=O)N1CCC(CCCNc2ccc3c(c2)OCC3=O)CC1,52,94,66,108,–
CC(C)(C)OC(=O)N1CCC(CCCC(=O)Nc2ccc3c(c2)CCS3(=O)=O)CC1,2610,56,–,–,–
CC(C)(C)OC(=O)N1CCC(CCCNc2ccc3c(c2)C(=O)CCO3)CC1,272,100,351,108,–
CC(C)c1nc(N2CCC(CCCNc3ccc4c(c3)OCC4=O)CC2)no1,161,91,–,–,–
CCc1cnc(N2CCC(CCCNc3ccc4c(c3)OCC4=O)CC2)nc1,117,115,159,98,–
CC(C)(C)OC(=O)N1CCC(CCCNc2ccc3c(c2)CNC3=O)CC1,550,91,515,102,–
CN(CCNc1ccc2c(c1)CCS2(=O)=O)C1CCN(C(=O)OC(C)(C)C)CC1,–,10,–,–,Activity [6]: 10%
CC(C)(C)OC(=O)N1CCC(CCCNc2ccc3c(c2)CCC3=O)CC1,86,85,87,105,–
CC(C)(C)OC(=O)N1CCC(CCCNc2ccc3c(c2)C(=O)NC3)CC1,734,89,892,97,–
CC(C)(C)OC(=O)N1CCC(CCCCCNc2ccc3c(c2)CCS3(=O)=O)CC1,145,65,–,–,–
CC(C)c1nsc(N2CCC(CCCNc3ccc4c(c3)OCC4=O)CC2)n1,121,10,812,93,–
CCc1cnc(N2CCC(CCCNc3ccc4c(c3)C(=O)CC4)CC2)nc1,51,113,167,110,fold change (FC) (Mus musculus [7]): >2; Activity (Mus musculus [8]): 38%; Activity (Mus musculus [9]): 29%; Activity (Mus musculus [10]): Dose-dependent effect; Activity (Mus musculus [11]): 32%
CC(C)(C)OC(=O)N1CCC(CCCNc2ccc3c(c2)C(=O)CC3)CC1,46,98,123,110,–
CC(C)(C)OC(=O)N1CCC(CCCNc2ccc3c(c2)C(=O)CO3)CC1,88,95,262,116,–
CC(C)c1nnc(N2CCC(CCCNc3ccc4c(c3)OCC4=O)CC2)o1,704,85,1020,88,–
